Results from patent US6875418B2, “Method of early detection of Duchenne muscular dystrophy and other neuromuscular disease” (Mouse Specifics, Inc., priority 2001, dated 2005).

Assays:
nNOS -/- mice [1] = assay: Autonomic blockade, ECG heart rate and heart-rate variability in conscious nNOS -/- mice
C57 mice [2] = assay: Autonomic blockade, ECG heart rate and heart-rate variability in conscious C57 control mice; assay type: in vivo, mouse
Description: (§1) Male control C57BL/10ScSn (C57, n=15) and male mutant (mdx, n=15) mice (10-12 weeks old) were obtained from The Jackson Laboratory, Bar Harbor, Me. The animals were housed in standard conditions within the Animal Resource Facility at the Beth Israel Deaconess Medical Center. Handling and care of mice were consistent with federal and institutional guidelines.
(§2) ECGs were recorded in conscious mice as follows. Briefly, mice were gently removed from their cages and positioned on the ECG recording platform (AnonyMOUSE, Mouse Specifics, Inc., Boston, Mass.). An array of gel-coated ECG electrodes were embedded in the floor of the platform and spaced to provide contact between the electrodes and animals' paws. The electrodes were connected to an amplifier by three shielded conductive leads. As even modest handling of mice induces significant alterations in heart-rate, each mouse was permitted to acclimatize for 10 min prior to collection of baseline data. The signals were digitized with 16-bit precision at a sampling rate of 2000 samples/second. When mice were sitting or otherwise positioned such that the paws were not in contact with three electrodes, the output from the amplifier was discarded. Only data from continuous recordings of 15-25 ECG signals were used in the analyses.
Analyses of the ECGs were performed as described as follows. Each signal was analyzed using e-MOUSE, internet-based physiologic waveform analyses software. The program incorporates Fourier analyses and linear time-invariant digital filtering of frequencies below 2 Hz and above 100 Hz to minimize signal environmental disturbances. The software uses a peak detection algorithm to find the peak of the R-waves and to calculate heart-rate (HR). The inverted and/or biphasic portions of the T wave was included in calculations of the QT interval. The QT intervals were rate corrected (QTc) by an algorithm developed for use in mice. The software plots its interpretation of P, Q, R, S, and T for each beat so that spurious data resulting from unfiltered noise or motion artifacts may be rejected. The mean of the ECG time intervals for each set of waveforms is then calculated.
(§3) Heart-rate variability (HRV) was calculated as the standard deviation of all R—R intervals for each set of ECG signals. The coefficient of variance (CV,%) was calculated as the ratio of mean HRV to mean heart-rate.
Parasympathetic and sympathetic nervous system control of heart-rate regulation were investigated by pharmacological blockade. Mice received intraperitoneal administration of atropine (0.5 mg/kg) for parasympathetic blockade (n=15 mdx, n=15 C57), propranolol (1 mg/kg) for sympathetic blockade (n=10 mdx, n=7 C57), and atropine (0.5 mg/kg) plus propranolol (1 mg/kg) for combined β-adrenergic and muscarinic cholinergic blockade (n=10 mdx, n=7 C57). Baseline ECGs were recorded within 5 min prior to each administration and after a 5-10 min equilibrium phase after drug administration to allow for HR stabilization. The pharmacological interventions were performed on different days to prevent interference between drugs. […]
To study the effect of autonomic blockers on dystrophin deficient mice, parasympathetic and sympathetic nervous system control of heart-rate regulation were investigated by pharmacological blockade. […] Baseline ECGs were recorded within 5 min prior to each administration and after a 5-10 min equilibrium phase after drug administration to allow for HR stabilization.

mdx mice [3] = assay: Autonomic blockade, ECG heart rate and heart-rate variability in conscious mdx mice; assay type: in vivo, mouse
Description: as §1, §2
(§4) Analyses of the ECGs were performed as described as follows. Each signal was analyzed using e-MOUSE, internet-based physiologic waveform analyses software. […] The mean of the ECG time intervals for each set of waveforms is then calculated.
as §3
Parasympathetic and sympathetic nervous system control of heart-rate regulation were investigated by pharmacological blockade. […] Baseline ECGs were recorded within 5 min prior to each administration and after a 5-10 min equilibrium phase after drug administration to allow for HR stabilization. […]

mdx mice [4] = assay: Baroreflex pressor response to phenylephrine after β-adrenergic blockade in mdx mice; assay type: in vivo, mouse; conditions: phenylephrine 3 mg/kg i.p. after propranolol 1 mg/kg
Description: as §2
as §4, with “software. The program incorporates Fourier analyses and linear time-invariant digital filtering of frequencies below 2 Hz and above 100 Hz to minimize signal environmental disturbances.” for “software.”
as §3
(§5) Mice were administered intraperitoneal phenylephrine (3 mg/kg) after β-adrenergic blockade with propranolol (1 mg/kg) to test for a baroreflex-mediated cardio-inhibitory response (n=10 mdx, n=7 C57).16,21 After baseline recordings, ECGs were recorded after a 5-10 min equilibrium phase following propranolol administration to allow for HR stabilization, and then within 2 min following phenylephrine administration. Changes in ECG indices following phenylephrine were determined relative to those recorded following propranolol administration. […]

C57 mice [5] = assay: Baroreflex pressor response to phenylephrine after β-adrenergic blockade in C57 mice; assay type: in vivo, mouse; conditions: phenylephrine 3 mg/kg i.p. after propranolol 1 mg/kg
Description: as §2
as §4, with “software. The program incorporates Fourier analyses and linear time-invariant digital filtering of frequencies below 2 Hz and above 100 Hz to minimize signal environmental disturbances.” for “software.”
as §3, §5

nNOS -/- mice [6] = assay: Baroreflex pressor response to phenylephrine in nNOS -/- mice; assay type: in vivo, mouse
B6129 mice = assay: Baroreflex pressor response to phenylephrine in B6129 control mice; assay type: in vivo, mouse
[7] = C57 mice, i.p., 5-10 min after drug vs baseline, atropine 0.5 mg/kg, propranolol 1 mg/kg
[8] = within 2 min, relative to post-propranolol
[9] = phenylephrine after propranolol

## CN1[C@@H]2CC[C@H]1C[C@@H](OC(=O)C(CO)c1ccccc1)C2 (stereo partly shown) [atropine]
nNOS -/- mice [1]; FIG. 5
  directional change in HR in response to drug: significantly increased HR
nNOS -/- mice [1]; baseline 686±22 bpm, P=0.07
  HR after atropine administration: 721±12 bpm
nNOS -/- mice [1]; from 2.6±0.1 ms, P<0.05
  HRV after atropine administration: 0.7 ± 0.1 ms
nNOS -/- mice [1]; from 2.7±0.8%, P<0.05
  CV after atropine administration: 0.8±0.1%
C57 mice [2]; C57 mice n=15, atropine 0.5 mg/kg i.p.
  direction of heart-rate change in individual mice: increased in all but 2 of the C57 mice
C57 mice [2]; C57 mice, atropine 0.5 mg/kg i.p., baseline 2.7±0.9 ms
  HRV after atropine administration: 0.5 ± 0.9 ms
C57 mice [2]; [7]
  change in HRV: -1.6 ± 0.7 ms
Mdx mice [3]; mdx mice n=15, atropine 0.5 mg/kg i.p.
  direction of heart-rate change in individual mice: decreased in all 15 mdx mice
Mdx mice [3]; mdx mice, atropine 0.5 mg/kg i.p., FIG. 2a legend
  HR decreased by: 90±14 bpm

## CNC[C@H](O)c1cccc(O)c1 [phenylephrine]
Mdx mice [4]
  CV after phenylephrine administration: 6.0±1.7%
  HRV after phenylephrine administration: 8.5 ± 2.5 ms
Mdx mice [4]; [8]
  change in HR after phenylephrine: −132±27 bpm
C57 mice [5]
  CV after phenylephrine administration: 15.8±2.4%
  HRV after phenylephrine administration: 28.6 ± 4.1 ms
C57 mice [5]; [8]
  change in HR after phenylephrine: −312±27 bpm
nNOS -/- mice [6]; Example 4
  increase in HRV after phenylephrine: +13.3±3.7 ms
nNOS -/- mice [6]; [9]
  change in HR after phenylephrine: −288±39 bpm
B6129 mice; Example 4
  increase in HRV after phenylephrine: +11.8±3.7 ms
B6129 mice; [9]
  change in HR after phenylephrine: −360±6 bpm

## CC(C)NCC(O)COc1cccc2ccccc12 (stereo not shown) [propranolol]
C57 mice [2]; [7]
  change in HRV: more significant in C57 than mdx mice
C57 mice [2]; C57 mice, i.p., 5-10 min after drug vs baseline, atropine 0.5 mg/kg, propranolol 1 mg/kg, mean±SE
  change in HR: −122±53 bpm
Mdx mice [3]; mdx mice, i.p., 5-10 min after drug vs baseline, atropine 0.5 mg/kg, propranolol 1 mg/kg, mean±SE
  change in HR: −60±27 bpm
